These results are taken from paper PMC9303458 (Chemmedchem, 2022).

Read-outs that look alike come from different tables or passages of the source.

For series [1] the following is noted: rats, peroral application; cited from earlier work.
Series [2] is described as follows: Chemical stability in aqueous solution. It counts as physicochemical. To be noted: percent of parent remaining after 60 min at 37 °C; mean ± SD, n=3.
Series [3] is described as follows: Metabolic stability in porcine liver S9 fraction. The following applies: percent of parent remaining after 30 min at 37 °C; mean ± SD, n=3. Type of series: in vitro ADME.
For series [4] the following is noted: dogs, peroral application; cited from earlier work.
A short description of series [5]: Thermodynamic aqueous solubility. To be noted: PBS pH 7.4, shaken 20 h, 20 °C; mean ± SD. Type of series: physicochemical.
The nature of series [6]: Metabolic stability in porcine blood plasma. Type of series: in vitro ADME. The following applies: percent of parent remaining after 30 min at 37 °C; mean ± SD, n=3.
For series [7], the system named is Caco‐2 cell monolayer. Briefly: Caco‐2 cell permeability.
In another series the target is T1, human recombinant MAGL (Homo sapiens, UniProt Q99685).
T1 sequence (Q99685 1-303): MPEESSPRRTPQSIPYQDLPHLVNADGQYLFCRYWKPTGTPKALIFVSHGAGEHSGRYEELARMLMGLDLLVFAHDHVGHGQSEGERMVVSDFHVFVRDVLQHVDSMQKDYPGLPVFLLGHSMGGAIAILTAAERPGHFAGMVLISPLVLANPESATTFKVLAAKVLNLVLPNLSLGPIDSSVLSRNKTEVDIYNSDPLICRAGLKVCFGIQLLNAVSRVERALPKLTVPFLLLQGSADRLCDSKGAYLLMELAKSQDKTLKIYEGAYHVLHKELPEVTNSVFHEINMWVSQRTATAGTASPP
It counts as biochemical. The following applies: for MAGL inhibition at 10 μM: highest test concentration.

In series [8] the target is T2, fatty acid amide hydrolase (FAAH), rat brain homogenate (Rattus norvegicus, UniProt P97612).
T2 sequence (P97612 1-579): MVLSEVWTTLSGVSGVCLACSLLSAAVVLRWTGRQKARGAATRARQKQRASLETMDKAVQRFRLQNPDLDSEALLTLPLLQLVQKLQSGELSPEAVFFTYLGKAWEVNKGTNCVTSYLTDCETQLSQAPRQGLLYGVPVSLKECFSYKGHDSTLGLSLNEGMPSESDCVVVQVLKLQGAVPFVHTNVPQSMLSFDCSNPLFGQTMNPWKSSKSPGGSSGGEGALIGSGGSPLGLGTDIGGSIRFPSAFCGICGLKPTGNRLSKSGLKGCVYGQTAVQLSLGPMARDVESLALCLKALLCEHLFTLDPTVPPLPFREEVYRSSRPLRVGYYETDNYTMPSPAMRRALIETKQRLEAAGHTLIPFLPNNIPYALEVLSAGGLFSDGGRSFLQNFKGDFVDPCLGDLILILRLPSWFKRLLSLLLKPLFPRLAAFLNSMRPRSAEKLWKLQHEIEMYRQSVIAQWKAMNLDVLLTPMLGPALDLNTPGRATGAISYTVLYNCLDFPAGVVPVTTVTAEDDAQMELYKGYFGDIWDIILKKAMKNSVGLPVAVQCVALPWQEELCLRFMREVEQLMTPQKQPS
It counts as biochemical. To be noted: for FAAH inhibition at 10 μM: highest test concentration.

Series [9] has as its target butyrylcholinesterase (BuChE) (Equus caballus, UniProt P81908). Briefly: Inhibition of BuChE, release of benzoic acid from benzoylcholine. It counts as biochemical, horse.
A short description of the next series: Caco‐2 cell permeability. The following applies: human, Caco-2, pH 7.4. For orientation: Caco-2 cells form a polarised layer with tight junctions and transporters.
Series [10] concerns Caco‐2 cell monolayer. The following applies: Caco‐2, comparable conditions; cited from earlier work.

butyrylcholinesterase (BuChE), sequence (P81908 whole entry): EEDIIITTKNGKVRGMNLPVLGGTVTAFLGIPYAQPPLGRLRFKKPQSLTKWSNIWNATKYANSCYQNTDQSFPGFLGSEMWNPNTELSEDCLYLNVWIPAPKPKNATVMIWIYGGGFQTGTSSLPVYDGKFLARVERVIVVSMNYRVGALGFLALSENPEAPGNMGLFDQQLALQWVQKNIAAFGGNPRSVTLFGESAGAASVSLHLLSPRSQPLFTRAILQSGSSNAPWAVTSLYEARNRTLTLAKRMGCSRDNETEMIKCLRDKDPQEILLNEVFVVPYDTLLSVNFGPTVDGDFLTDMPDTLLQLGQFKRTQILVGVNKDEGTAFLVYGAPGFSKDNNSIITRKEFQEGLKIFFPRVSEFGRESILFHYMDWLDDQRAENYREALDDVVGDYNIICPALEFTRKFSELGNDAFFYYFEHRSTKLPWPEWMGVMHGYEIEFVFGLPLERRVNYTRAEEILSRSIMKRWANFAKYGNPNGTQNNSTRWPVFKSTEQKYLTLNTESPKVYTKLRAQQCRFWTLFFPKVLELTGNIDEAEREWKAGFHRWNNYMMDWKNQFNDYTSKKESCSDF

As for `O=C(OC(C(F)(F)F)C(F)(F)F)N1CCN(Cc2ccc(C(F)(F)F)cc2N2CCCC2)CC1` [ABX‐1431, reference compound], the Bioavailability entry in series [1] and in series [4] was “more than 60%” each time. Moreover, the “PBS‐buffer pH 7.4 Stability” value in series [2] is 90±5%. Also, the “Porcine liver S9 fraction Stability” value in [3] is on record as 81±3%. Besides, the “Aqueous solubility pH 7.4” value in [5] is “very low solubility”. Besides, the “Porcine blood plasma Stability” value in series [6] stood at 95±2%. The “Permeability coefficient pH 7.4” value in the series with Caco‐2 cell monolayer [7] (Caco‐2, 10 μM apical, 2 h, 37 °C, mean ± SD, n=3, n.d.: no permeation detectable) is “could not be detected”.
`O=C(NCCCCCn1ccc2ccc(F)cc21)Oc1ccccc1` [Compound 6, phenyl N‐[5‐(6‐fluoroindol‐1‐yl)pentyl]carbamate]: the “MAGL inhibition at 10 μM” value on human recombinant MAGL was “no inhibition”.
Take `O=C(NCCCCCCn1ccc2ccc(F)cc21)OC(C(F)(F)F)C(F)(F)F` [Compound 13, 1,1,1,3,3,3‐Hexafluoropropan‐2‐yl N‐[6‐(6‐fluoroindol‐1‐yl)hexyl]carbamate]: the IC50 in series [8] was found to be 0.77 µM; in [9] it was 1.8 µM. For the same compound, the “PBS‐buffer pH 7.4 Stability” value in series [2] was found to be 95±3%. The “Porcine liver S9 fraction Stability” value in series [3] was 69±5%. Further, the “Porcine blood plasma Stability” value in series [6] turned out to be 79±8%.
On to `O=C(OC(C(F)(F)F)C(F)(F)F)N1CCC(CCn2cnc3ccccc32)CC1` [Compound 101, 1,1,1,3,3,3‐Hexafluoropropan‐2‐yl 4‐[2‐(benzimidazol‐1‐yl)ethyl]piperidine‐1‐carboxylate], for which the IC50 in series [8] is 1 µM. For the same compound, the “PBS‐buffer pH 7.4 Stability” value in series [2] is reported as greater than 95%. Also, the “Porcine liver S9 fraction Stability” value in series [3] turned out to be 82±7%. Also, the “Aqueous solubility pH 7.4” value in series [5] worked out at 6.1±0.5 μg/mL. Further, the “Porcine blood plasma Stability” value in series [6] worked out at 93±5%. In “Caco‐2 cell permeability”, this compound displayed a Papp A→B at 2 h, 10 µM of 12.6 ± 1 ×10⁻⁶ cm/s.
`O=C(OC(C(F)(F)F)C(F)(F)F)N1CCN(CCn2ccc3ccc(F)cc32)CC1` [Compound 92, 1,1,1,3,3,3‐Hexafluoropropan‐2‐yl 4‐[2‐(6‐fluoroindol‐1‐yl)ethyl]piperazine‐1‐carboxylate]: the “Decrease of activity towards MAGL relative to lead structure 24 (factor)” value at human recombinant MAGL (ratio of IC50 values) is “about 1.5”. This compound registered an IC50 in series [8] of 2.6 µM. The “Decrease of activity towards FAAH relative to lead structure 24 (factor)” value in series [8] (ratio of IC50 values) was roughly 2.5.
Take `COc1ccc2c(c1)c(CC(=O)O)c(C)n2C(=O)c1ccc(Cl)cc1` [indomethacin, reference compound]: the “Permeability coefficient, literature value” in the series with Caco‐2 cell monolayer [10] is 20.4 ×10⁻⁶ cm/s. In the series on Caco‐2 cell monolayer [7] (sum of apical and basolateral compartments after 2 h), the “Recovery of test compound at the end of the Caco‐2 experiment” value is “quantitative”.
For `O=C(OC(C(F)(F)F)C(F)(F)F)N1CCC(Cn2ccc3cccnc32)CC1` [Compound 125, 1,1,1,3,3,3‐Hexafluoropropan‐2‐yl 4‐[(7‐azaindol‐1‐yl)methyl]piperidine‐1‐carboxylate], in series [8], the “FAAH inhibition at 10 μM” value is recorded as “ineffective”. Further, in series [2], the “PBS‐buffer pH 7.4 Stability” value is on record as 92±7%. For the same compound, in [3], the “Porcine liver S9 fraction Stability” value is 75±8%. The “Porcine blood plasma Stability” value in [6] came to 79±6%. For the same compound, the Papp A→B at 2 h, 10 µM in “Caco‐2 cell permeability” was 10 ×10⁻⁶ cm/s.
With `CN(CCCCCn1ccc2ccc(F)cc21)C(=O)OC(C(F)(F)F)C(F)(F)F` [Compound 35, 1,1,1,3,3,3‐Hexafluoropropan‐2‐yl N‐methyl‐N‐[5‐(6‐fluoroindol‐1‐yl)pentyl]carbamate], the inhibition at 10 µM at human recombinant MAGL (read-out: MAGL inhibition at 10 μM) was roughly 30%; in series [8] (read-out: FAAH inhibition at 10 μM, 10 μM, highest test concentration), roughly 30%.
Consider `O=C(OC(C(F)(F)F)C(F)(F)F)N(CCCCCn1ccc2ccc(F)cc21)C1CC1` [Compound 42], for which the “MAGL inhibition at 10 μM” value at human recombinant MAGL was “inactive”. In series [8], the “FAAH inhibition at 10 μM” value was “inactive”.
`CCN(CCCCCn1ccc2ccc(F)cc21)C(=O)OC(C(F)(F)F)C(F)(F)F` [Compound 38, 1,1,1,3,3,3‐Hexafluoropropan‐2‐yl N‐ethyl‐N‐[5‐(6‐fluoroindol‐1‐yl)pentyl]carbamate]: at human recombinant MAGL, the “MAGL inhibition at 10 μM” value is “inactive”. Besides, in series [8], the “FAAH inhibition at 10 μM” value was “inactive”.
`O=C(OC(C(F)(F)F)C(F)(F)F)N1CCC(CCn2ccc3ccc(F)cc32)CC1` [Compound 24, 1,1,1,3,3,3‐Hexafluoropropan‐2‐yl 4‐[2‐(6‐fluoroindol‐1‐yl)ethyl]piperidine‐1‐carboxylate]: in [8], the IC50 was determined as 1 µM. The “PBS‐buffer pH 7.4 Stability” value in series [2] was found to be 93±1%. Also, the “Porcine liver S9 fraction Stability” value in series [3] came out at 68±7%. In [6], the “Porcine blood plasma Stability” value turned out to be 86±7%.
As to `O=C(NCCCCCn1ccc2ccc(F)cc21)OC(C(F)(F)F)C(F)(F)F` [Compound 11, 1,1,1,3,3,3‐Hexafluoropropan‐2‐yl N‐[5‐(6‐fluoroindol‐1‐yl)pentyl]carbamate], the 50% inhibitory concentration (IC50) amounted to 0.74 µM in series [8] and 3.5 µM in [9]. Moreover, in series [2], the “PBS‐buffer pH 7.4 Stability” value is listed as 95±4%. The “Porcine liver S9 fraction Stability” value in series [3] is 72±5%. The “Porcine blood plasma Stability” value in [6] stood at 86±9%.
Regarding `CC(C)N(CCCCCn1ccc2ccc(F)cc21)C(=O)OC(C(F)(F)F)C(F)(F)F` [Compound 40], the “MAGL inhibition at 10 μM” value on human recombinant MAGL is “inactive”. Further, in [8], the “FAAH inhibition at 10 μM” value is “inactive”.

By IC50 is commonly meant the midpoint of a concentration-inhibition curve. High values mean a need for much substance, low ones inhibition by little substance. As usually defined, the Papp A→B is how fast a substance crosses the layer from the apical side.
